Values of other authors, collected in article PMC7904743, “WIDOCK: a reactive docking protocol for virtual screening of covalent inhibitors” (Journal of Computer-Aided Molecular Design, 2021).
Like-named read-outs stand apart in the source and are kept apart here.

Columns and labels:
OTUB2 = settings: experimental actives if % labeling higher than 50%, cited from earlier work
NUDT7 = settings: protein labeling at 200 μM; experimental actives if % labeling higher than 50%; cited from earlier work
[1] = thiol reactivity, cited from earlier work
[2] = natural log of average rate constant k
[3] = natural logarithm of average rate constant
[4] = natural log of average rate constant
[5] = natural log of average kinetic rate constant

SMILES	OTUB2 % labeling (OTUB2) [%]	NUDT7 % labeling (NUDT7) [%]	ln(avg k) [1, 2]	ln(avg k) [1, 3]	ln(avg k) [1, 4]	OTUB2 % labeling (OTUB2; OTUB2 protein labeling) [%]	ln(avg k) [1, 5]
O=C(CCl)NC(=O)NCC1COc2ccccc2O1 (stereo not shown) [PCM-0102092, O=C(CCl)NC(=O)NCC1COc2ccccc2O1]	0	0	-15.940	-15.940	–	–	–
O=C(CCl)N1CCN(c2ncccn2)CC1 [PCM-0102093, O=C(CCl)N1CCN(c2ncccn2)CC1]	0	0	-15.547	-15.547	–	–	–
O=C(CCl)N1CCN(c2ccc([N+](=O)[O-])cc2)CC1 [PCM-0102094, O=C(CCl)N1CCN(c2ccc([N+](=O)[O-])cc2)CC1]	0	27	-15.009	-15.009	–	–	–
Cc1csc(CC(=O)NNC(=O)CCl)n1 [PCM-0102095, Cc1csc(CC(=O)NNC(=O)CCl)n1]	51	0	-16.857	-16.857	–	–	–
CC(NC(=O)CCl)c1ccc(Cl)c(Cl)c1 (stereo not shown) [PCM-0102096, CC(NC(=O)CCl)c1ccc(Cl)c(Cl)c1]	26	51	-16.200	-16.200	–	–	–
O=C(CCl)Nc1cccc2ncccc12 [PCM-0102097, O=C(CCl)Nc1cccc2ncccc12]	42	0	-16.130	-16.130	–	–	–
Cc1ccc([N+](=O)[O-])cc1NC(=O)CCl [PCM-0102098, Cc1ccc([N+](=O)[O-])cc1NC(=O)CCl]	33	12	-15.712	-15.712	–	–	–
Cc1c(C#N)c(NC(=O)CCl)n(-c2ccc(F)cc2)c1C [PCM-0102099, Cc1c(C#N)c(NC(=O)CCl)n(-c2ccc(F)cc2)c1C]	0	17	-15.940	-15.940	–	–	–
O=C(CCl)Nc1ccc(-c2nnc3n2CCCCC3)cc1 [PCM-0102101, O=C(CCl)Nc1ccc(-c2nnc3n2CCCCC3)cc1]	28	0	-15.815	-15.815	–	–	–
Cc1ccc(C2=NN(C(=O)CCl)C(c3ccco3)C2)o1 (stereo not shown) [PCM-0102102, Cc1ccc(C2=NN(C(=O)CCl)C(c3ccco3)C2)o1]	0	20	-14.412	-14.412	–	–	–
CCN1CCC(NC(=O)CCl)CC1 [PCM-0102103, CCN1CCC(NC(=O)CCl)CC1]	0	0	-15.455	-15.455	–	–	–
O=C(CCl)Nc1ccc2c(c1)OC1(CCCCC1)O2 [PCM-0102104, O=C(CCl)Nc1ccc2c(c1)OC1(CCCCC1)O2]	47	8	-15.658	-15.658	–	–	–
CCN(C(=O)CCl)C1CCS(=O)(=O)C1 (stereo not shown) [PCM-0102105, CCN(C(=O)CCl)C1CCS(=O)(=O)C1]	0	0	-15.384	-15.384	–	–	–
CC(NC(=O)CCl)c1ccccc1Cl (stereo not shown) [PCM-0102110, CC(NC(=O)CCl)c1ccccc1Cl]	25	0	-16.453	-16.453	–	–	–
O=C(CCl)Nc1ccc(Cl)c(Cl)c1 [PCM-0102112, O=C(CCl)Nc1ccc(Cl)c(Cl)c1]	30	18	-15.433	-15.433	–	–	–
Cc1nc(NC(=O)CCl)sc1C [PCM-0102124, Cc1nc(NC(=O)CCl)sc1C]	0	–	–	-15.463	–	–	–
N#CC1(NC(=O)CCl)CCCC1 [PCM-0102136, N#CC1(NC(=O)CCl)CCCC1]	–	0	-15.612	–	–	–	–
O=C(CCl)Nc1ccc2[nH]c(C(F)(F)F)nc2c1 [PCM-0102151, O=C(CCl)Nc1ccc2[nH]c(C(F)(F)F)nc2c1]	–	7	-15.575	–	–	–	–
Cc1cccc([N+](=O)[O-])c1NC(=O)CCl [PCM-0102176, Cc1cccc([N+](=O)[O-])c1NC(=O)CCl]	–	22	-16.601	–	–	–	–
O=C(CCl)N1N=C(c2ccco2)CC1c1cccs1 (stereo not shown) [PCM-0102182, O=C(CCl)N1N=C(c2ccco2)CC1c1cccs1]	0	–	–	-14.540	–	–	–
O=C(CCl)Nc1ccc(N2CCCCCC2)cc1 [PCM-0102199, O=C(CCl)Nc1ccc(N2CCCCCC2)cc1]	–	8	-15.785	–	–	–	–
Cc1cccc(N2CCN(C(=O)CCl)CC2)c1C [PCM-0102215, Cc1cccc(N2CCN(C(=O)CCl)CC2)c1C]	–	29	-15.103	–	–	–	–
O=C(CCl)Nc1c(Cl)cccc1Cl [PCM-0102234, O=C(CCl)Nc1c(Cl)cccc1Cl]	–	64	-17.086	–	–	–	–
CC1CCN(c2ccc(NC(=O)CCl)cc2)CC1 [PCM-0102235, CC1CCN(c2ccc(NC(=O)CCl)cc2)CC1]	–	0	-16.035	–	–	–	–
Cc1ccccc1CNC(=O)CCl [PCM-0102253, Cc1ccccc1CNC(=O)CCl]	–	0	-16.467	–	–	–	–
COc1ccc(NC(=O)NC(=O)CCl)cc1 [PCM-0102268, COc1ccc(NC(=O)NC(=O)CCl)cc1]	–	0	-15.795	–	–	–	–
Cc1cc(N2CCCC2)ccc1NC(=O)CCl [PCM-0102301, Cc1cc(N2CCCC2)ccc1NC(=O)CCl]	–	24	-16.271	–	–	–	–

SMILES	OTUB2 % labeling (OTUB2) [%]	NUDT7 % labeling (NUDT7) [%]	ln(avg k) [1, 2]	ln(avg k) [1, 3]	ln(avg k) [1, 4]	OTUB2 % labeling (OTUB2; OTUB2 protein labeling) [%]	ln(avg k) [1, 5]
O=C(CCl)NC1CCCCCCC1 [PCM-0102318, O=C(CCl)NC1CCCCCCC1]	–	0	-16.468	–	–	–	–
Cc1cc(NC(=O)CCl)n(C)n1 [PCM-0102383, Cc1cc(NC(=O)CCl)n(C)n1]	–	0	-15.428	–	–	–	–
Cc1ccc(NC(=O)CCl)c(Cl)c1 [PCM-0102408, Cc1ccc(NC(=O)CCl)c(Cl)c1]	–	18	-16.426	–	–	–	–
O=C(CCl)Nc1nncs1 [PCM-0102427, O=C(CCl)Nc1nncs1]	0	–	–	-16.300	–	–	–
CC1CCCCN1C(=O)CCl (stereo not shown) [PCM-0102434, CC1CCCCN1C(=O)CCl]	–	0	-15.958	–	–	–	–
O=C(CCl)N1CCC2CCCCC2C1 (stereo not shown) [PCM-0102474, O=C(CCl)N1CCC2CCCCC2C1]	0	–	–	-15.859	–	–	–
O=C(CCl)N1CCc2[nH]c3ccccc3c2C1 [PCM-0102591, O=C(CCl)N1CCc2[nH]c3ccccc3c2C1]	–	22	-14.023	–	–	–	–
Cc1cc(NC(=O)CCl)ccc1Br [PCM-0102770, Cc1cc(NC(=O)CCl)ccc1Br]	–	21	–	–	-15.518	–	–
O=C(CCl)N(C1CC1)C1CCCc2ccccc21 (stereo not shown) [PCM-0102774, O=C(CCl)N(C1CC1)C1CCCc2ccccc21]	–	–	–	–	–	0	-16.197
CC1CCC(N(C(=O)CCl)C2CC2)CC1 (stereo not shown) [PCM-0102792, CC1CCC(N(C(=O)CCl)C2CC2)CC1]	–	13	–	–	-16.001	–	–
O=C(CCl)Nc1ccc2c(c1)OC1(CCCC1)O2 [PCM-0102801, O=C(CCl)Nc1ccc2c(c1)OC1(CCCC1)O2]	–	10	–	–	-15.785	–	–
O=C(CCl)Nc1ccc(N2CCCCC2)nc1 [PCM-0102812, O=C(CCl)Nc1ccc(N2CCCCC2)nc1]	–	14	–	–	-15.797	–	–
O=C(CCl)NC1CCC2(CC1)OCCO2 [PCM-0102820, O=C(CCl)NC1CCC2(CC1)OCCO2]	–	–	–	–	–	13	-16.468
CN(C)c1ccc(NC(=O)CCl)cc1 [PCM-0102859, CN(C)c1ccc(NC(=O)CCl)cc1]	–	0	–	–	-14.235	–	–
O=C(CCl)NC1CCC(C(F)(F)F)CC1 (stereo not shown) [PCM-0102864, O=C(CCl)NC1CCC(C(F)(F)F)CC1]	–	0	–	–	-16.404	–	–
C=CC(=O)Nc1nc(-c2ccc(O)cc2)cs1 [PCM-0102884, C=CC(=O)Nc1nc(-c2ccc(O)cc2)cs1]	–	–	–	–	–	0	-17.011
O=C(CCl)Nc1ccc2c(c1)NC(=O)CO2 [PCM-0102890, O=C(CCl)Nc1ccc2c(c1)NC(=O)CO2]	–	8	–	–	–	32	–
O=C(CCl)Nc1ccccc1O [PCM-0102907, O=C(CCl)Nc1ccccc1O]	–	36	–	–	-17.265	–	–
Cc1ccccc1CN1CCCN(C(=O)CCl)CC1 [PCM-0102911, Cc1ccccc1CN1CCCN(C(=O)CCl)CC1]	–	0	–	–	–	0	–
CC(=O)NC1CCCN(C(=O)CCl)C1 (stereo not shown) [PCM-0102934, CC(=O)NC1CCCN(C(=O)CCl)C1]	–	0	–	–	-15.534	–	–
CN(Cc1cccc(Cl)c1)C(=O)CCl [PCM-0102976, CN(Cc1cccc(Cl)c1)C(=O)CCl]	–	–	–	–	–	0	-16.166
O=C(CCl)Nc1nc(-c2ccco2)cs1 [PCM-0102979, O=C(CCl)Nc1nc(-c2ccco2)cs1]	–	25	–	–	-15.876	–	–
CC(NC(=O)CCl)C(=O)O (stereo not shown) [PCM-0102990, CC(NC(=O)CCl)C(=O)O]	–	0	–	–	-18.115	–	–
O=C(CCl)NCC#Cc1ccccc1 [PCM-0103007, O=C(CCl)NCC#Cc1ccccc1]	–	–	–	–	–	60	-16.727
Cc1ccc(NC(=O)CCl)c(C)c1 [PCM-0103041, Cc1ccc(NC(=O)CCl)c(C)c1]	–	0	–	–	-16.644	–	–
Cc1ccc(CN2CCCN(C(=O)CCl)CC2)cc1 [PCM-0103056, Cc1ccc(CN2CCCN(C(=O)CCl)CC2)cc1]	–	0	–	–	–	0	–
